Reference: ChEMBL document CHEMBL1201862, “PubChem BioAssay data set” (2004)
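Each compound was tested at five concentrations against cells in 96-well plates for 48 hours. GI50 = concentration required for 50% inhibition of growth.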 The source made the active and inactive calls. Cut-off read from the data, not from the text of the source: active = GI50 up to about 1.1 µM and inactive = higher.

How the values were obtained:
Experiment in all cases: NCI anticancer screen, dose series, 48 h
U-251 = tested on: U-251
RPMI-8226 = tested on: RPMI-8226
NCI-H23 = tested on: NCI-H23
TK-10 = tested on: TK-10
Hs-578T = tested on: Hs-578T
NCI-H226 = tested on: NCI-H226
Malme-3M = tested on: Malme-3M
HCC 2998 = tested on: HCC 2998
UACC-62 = tested on: UACC-62
SR = tested on: SR
ACHN = tested on: ACHN
HCT-15 = tested on: HCT-15
SF-539 = tested on: SF-539
COLO 205 = tested on: COLO 205
HT-29 = tested on: HT-29
HOP-92 = tested on: HOP-92
SK-OV-3 = tested on: SK-OV-3
MOLT-4 = tested on: MOLT-4
MDA-N = tested on: MDA-N

| SMILES | GI50 (U-251) | GI50 (RPMI-8226) | GI50 (NCI-H23) | GI50 (TK-10) | GI50 (Hs-578T) | GI50 (NCI-H226) | GI50 (Malme-3M) | GI50 (HCC 2998) | GI50 (UACC-62) | GI50 (SR) | GI50 (ACHN) | GI50 (HCT-15) | GI50 (SF-539) | GI50 (COLO 205) | GI50 (HT-29) | GI50 (HOP-92) | GI50 (SK-OV-3) | GI50 (MOLT-4) | GI50 (MDA-N) |
| --- | --- | --- | --- | --- | --- | --- | --- | --- | --- | --- | --- | --- | --- | --- | --- | --- | --- | --- | --- |
| CC(CO)(Nc1ccc([N+](=O)[O-])cc1[N+](=O)[O-])C(=O)O (centres undefined) | 22.9 µM (inactive) | 29.3 µM (inactive) | 27.8 µM (inactive) | 36.1 µM (inactive) | 17.3 µM (inactive) | > 100 µM (inactive) | 18.7 µM (inactive) | 22.4 µM (inactive) | 33.7 µM (inactive) | 12.1 µM (inactive) | 18.7 µM (inactive) | 17.6 µM | 34 µM (inactive) | 16.9 µM (inactive) | 16.7 µM (inactive) | – | – | – | – |
| O=C1/C(=C/c2cccc(O)c2)COc2ccccc21 | 1.87 µM (inactive) | 1.15 µM (inactive) | 5.74 µM (inactive) | 15.4 µM (inactive) | 9.77 µM (inactive) | 11.4 µM (inactive) | 8.89 µM (inactive) | 0.029 µM (active) | 3.88 µM (inactive) | 2.16 µM (inactive) | 1.78 µM (inactive) | 1.42 µM | 9.86 µM (inactive) | 13.5 µM (inactive) | 3.27 µM (inactive) | 16.9 µM (inactive) | 21.3 µM (inactive) | 2.24 µM (inactive) | – |
| O=C1CCC2(c3ccccc3)OCC([C@@H](O)c3ccccc3)N12 (some centres undefined) | > 100 µM (inactive) | > 100 µM (inactive) | > 100 µM (inactive) | > 100 µM (inactive) | – | – | > 100 µM (inactive) | – | > 100 µM (inactive) | > 100 µM (inactive) | > 100 µM (inactive) | > 100 µM | > 100 µM (inactive) | > 100 µM (inactive) | > 100 µM (inactive) | > 100 µM (inactive) | – | – | – |
| Cc1ccc(S(=O)(=O)NC(=O)C2C(=O)CC3(CCCCC3)CC2=O)cc1 | 38.4 µM (inactive) | 23.1 µM (inactive) | 46 µM (inactive) | 23.5 µM (inactive) | 41.9 µM (inactive) | 34.8 µM (inactive) | – | – | 31.3 µM (inactive) | – | 22.9 µM (inactive) | 23.2 µM | 30.7 µM (inactive) | 17.9 µM (inactive) | 32.7 µM (inactive) | 14.8 µM (inactive) | 28.2 µM (inactive) | 42.4 µM (inactive) | 29.3 µM (inactive) |
| O=c1[nH]nc(Cc2ccc(Cl)cc2)n1/N=C\c1ccc(/C=N/n2c(Cc3ccc(Cl)cc3)n[nH]c2=O)cc1 | 26.6 µM (inactive) | > 100 µM (inactive) | > 100 µM (inactive) | 0.855 µM (active) | 35.7 µM (inactive) | 96.6 µM (inactive) | > 100 µM (inactive) | – | > 100 µM (inactive) | – | 29.9 µM (inactive) | > 100 µM | – | > 100 µM (inactive) | > 100 µM (inactive) | 28.3 µM (inactive) | – | > 100 µM (inactive) | > 100 µM (inactive) |
| CC1(C)C2CC(O)C1CCC2=O (centres undefined) | > 100 µM (inactive) | > 100 µM (inactive) | > 100 µM (inactive) | > 100 µM (inactive) | > 100 µM (inactive) | > 100 µM (inactive) | > 100 µM (inactive) | > 100 µM (inactive) | > 100 µM (inactive) | – | > 100 µM (inactive) | > 100 µM | > 100 µM (inactive) | > 100 µM (inactive) | > 100 µM (inactive) | – | > 100 µM (inactive) | > 100 µM (inactive) | > 100 µM (inactive) |
| CC1(C)O[C@H]([C@H](O)c2nnc3ccc(Cl)nn23)[C@@H]([C@H]2COC(C)(C)O2)O1 | > 100 µM (inactive) | > 100 µM (inactive) | > 100 µM (inactive) | > 100 µM (inactive) | > 100 µM (inactive) | – | > 100 µM (inactive) | > 100 µM (inactive) | > 100 µM (inactive) | – | > 100 µM (inactive) | > 100 µM | > 100 µM (inactive) | > 100 µM (inactive) | > 100 µM (inactive) | – | > 100 µM (inactive) | > 100 µM (inactive) | > 100 µM (inactive) |
| CC1=CC(=O)/C(=C/NC(=S)Nc2ccccc2)C(=O)O1 | > 100 µM (inactive) | > 100 µM (inactive) | > 100 µM (inactive) | > 100 µM (inactive) | > 100 µM (inactive) | > 100 µM (inactive) | – | > 100 µM (inactive) | > 100 µM (inactive) | – | > 100 µM (inactive) | > 100 µM | > 100 µM (inactive) | > 100 µM (inactive) | > 100 µM (inactive) | > 100 µM (inactive) | > 100 µM (inactive) | > 100 µM (inactive) | > 100 µM (inactive) |
| CNc1nc(SC)nc2c1c(N)nn2C | > 100 µM (inactive) | > 100 µM (inactive) | > 100 µM (inactive) | > 100 µM (inactive) | 95.3 µM (inactive) | > 100 µM (inactive) | > 100 µM (inactive) | > 100 µM (inactive) | > 100 µM (inactive) | – | > 100 µM (inactive) | > 100 µM | – | > 100 µM (inactive) | > 100 µM (inactive) | > 100 µM (inactive) | > 100 µM (inactive) | > 100 µM (inactive) | > 100 µM (inactive) |
